Measurements taken from US20200187504A1, “ENVIRONMENTALLY FRIENDLY COMPOSITIONS FOR FOLIAR AND GRANULAR CONTROL OF WEEDS” (priority 2018, published 2020).

Legend:
seed geranium = settings: Lee et al. (1996), in combination with nitrogen, phosphorus, and potassium; cited from earlier work
[1] = system: selected grasses and forbs; settings: greenhouse trials, Munshower and others (2006); cited from earlier work
French marigold = settings: Choi et al. (1996); cited from earlier work
Perennial Grass = test: Weedy turf test plots: perennial grass cover and turf stress after treatment; type: in vivo; settings: for Perennial Grass 8 months: cover in weedy turf plots of Table 4, 8 months, B and N rates per treatment; for Perennial Grass 10 months: cover in weedy turf plots of Table 4, 10 months; for Perennial Grass 12 months: cover in weedy turf plots of Table 4, 12 months; for 8-12 month average grass cover: weedy turf plots of Table 4
Description: (§1) Then, multiple plots were installed in weedy turf for liquid boron fertilizer application. The plots listed in Table 4 were used for varying application rates of B1300 where the amount of liquid applied to each plot varied. The sprayer was weighed before and after each application and the application rate determined by calculation knowing the concentration of B1300 liquid applied. The results of foliar liquid applied in controlling invasive species is reported in FIG. 3 and compared to an untreated control. As presented in FIG. 3, the plots were monitored 1 month, 8 months and 10 months after four different application rates of liquid B1300 (47 pounds B/acre, 62 pounds B/acre, 75 pounds B/acre, and 93 pounds B/acre), which show the effectiveness of each rate in limiting the growth of invasive plant species. The weedy plants controlled included dandelion (Taraxacum officiniale), oxeye daisy (Chrysanthemum leucanthemum), black medic (Medicago lupulina), Canadian thistle (Circium arvense), and white clover (Trifolium repens). The desirable perennial grasses that were unharmed or stimulated included Kentucky bluegrass (Poa pratensis) and smooth brome (Bromus inermis). The effectiveness of relevant commercial products targeting control of invasive plant species are shown in FIG. 5C and include glyphosate, Natria FeHEDTA and 2-4 D.
(§2) Table 4 lists the tested plots with various treatment using granular and/or liquid boron formulations alone, or in combination with another micronutrient Cu and/or macronutrients including N, P, K. FIG. 3 and FIGS. 5A-5E represent phytotoxicity effect on weed control by investigating coverage after the desired treatments from the test plots listed in Table 4. Also, FIGS. 9A-9D to FIGS. 25A-25D present actual vegetation conditions of each plot after the desired treatment described in Table 4.
(§3) In this example the fertilizer was applied to weedy turf grass in September with approximately 50% invasive plant cover and then monitored again one, eight and ten months after initial application. At this North American field site snow covered the ground from approximately December through March. The weedy plants controlled included dandelion (Taraxacum officiniale), oxeye daisy (Chrysanthemum leucanthemum), black medic (Medicago lupulina), Canadian thistle (Circium arvense), and white clover (Trifolium repens). The desirable perennial grasses that were unharmed or stimulated included Kentucky bluegrass (Poa pratensis) and smooth brome (Bromus inermis).

weedy turf = test: Weedy turf test plots: Vegetation Ranking Index; type: in vivo; settings: healthy perennial grass cover x 3.5 minus 2.5 x stressed/unhealthy grass minus weed cover
Description: as §2

Forbs (Weeds) = test: Weedy turf test plots: forb (weed) cover and weed control after treatment; type: in vivo; settings: for control of invasive weeds, in words: Fall-treated turf plots of Table 4, 10-month study period, rate as in the label; for Forbs (Weeds) 8 months: cover in weedy turf plots of Table 4, 8 months; for Forbs (Weeds) 10 months: cover in weedy turf plots of Table 4, 10 months; for Forbs (Weeds) 12 months: cover in weedy turf plots of Table 4, 12 months; for 8-12 month average weed cover: weedy turf plots of Table 4
Description: as §1, with “the plots were monitored 1 month, 8 months and 10 months after four different application” left out
as §2
as §3, with “In this example the fertilizer was applied to weedy turf grass in September with approximately 50% invasive plant cover and then monitored again one, eight and ten months after initial application.” left out

humans = settings: 2005 carcinogen assessment guidelines; cited from earlier work
chlorophyllitic plants = settings: as little as; cited from earlier work
prostrate knotweed = test: Foliar spray on prostrate knotweed, compared with Roundup; type: in vivo, Polygonum aviculare
Description: In this example, liquid B1300 product was formulated by dissolving 1300 grams of 20.5% Boron (Solubor®) into 4 gallons of water for a foliar spray to target plants, either with or without ‘drizzle down’ of the liquid into the roots. Also, liquid B1440 product was formulated by dissolving 1440 grams of 20.5% Boron (Solubor®) into 4 gallons of water. Many invasive plants are controlled by B1300 foliar spray as presented in FIGS. 1A-1C or B1440 foliar spray as presented in FIGS. 2A-2C. Annual invasive plant species are easily controlled by phytotoxic nutrient addition since they have to grow from seed every year and have the least reliance on well—developed/extensive root systems and/or taproots that store plant resources. Annual invasive plants also have to grow from near the soil surface every year where it is easiest to add phytotoxic micronutrients and change the soil chemistry to inhibit or control the annual plant's growth. Perennial invasive plants grow every year from the previous years roots and take generally two forms: tap root species and extensive well-developed root systems. In general, it is difficult to control these invasive perennial plants compared to annual plants due to roots with plant resources deep in the soil. […]

[B] [B, boron]
concentration of nutrient solution inducing toxicity symptoms (seed geranium): 500 µM
solution concentration at which plants performed adequately [1]: up to 40 mg B/L
concentration inducing micro-nutrient toxicity (French marigold): 500 µM

[Mn+2] [Mn, manganese]
concentration of nutrient solution inducing toxicity symptoms (seed geranium): 1000 µM
concentration inducing micro-nutrient toxicity (French marigold): 2000 µM

[Cu] [Cu, copper]
concentration of nutrient solution inducing toxicity symptoms (seed geranium): 500 µM
concentration inducing micro-nutrient toxicity (French marigold): 4000 µM

O=C(O)COc1ccc(Cl)cc1Cl [2-4D (S), 2,4-Dichlorophenoxyacetic acid]
Perennial Grass 8 months (Perennial Grass): 90%
Perennial Grass 10 months (Perennial Grass): 85%
Perennial Grass 12 months (Perennial Grass): 78%
8-12 month average grass cover (Perennial Grass): 84%
Vegetation Ranking Index (weedy turf): 13
control of invasive weeds, in words (Forbs (Weeds)): short-term treatment effect
Forbs (Weeds) 8 months (Forbs (Weeds)): 5%
Forbs (Weeds) 10 months (Forbs (Weeds)): 15%
Forbs (Weeds) 12 months (Forbs (Weeds)): 22%
8-12 month average weed cover (Forbs (Weeds)): 14%

[Zn] [Zn, zinc]
concentration of nutrient solution inducing toxicity symptoms (seed geranium): 500 µM
concentration inducing micro-nutrient toxicity (French marigold): 5000 µM

OB(O)O [boric acid]
U.S. EPA carcinogenicity classification (humans): not likely to be carcinogenic to humans

[Fe] [Fe, iron]
concentration of nutrient solution inducing toxicity symptoms (seed geranium): 500 µM
concentration inducing micro-nutrient toxicity (French marigold): 4000 µM

[Mo] [Mo, molybdenum]
concentration of nutrient solution inducing toxicity symptoms (seed geranium): 250 µM
concentration inducing micro-nutrient toxicity (French marigold): 1000 µM

O=C(O)CNCP(=O)(O)O [Glyphosate (S), glyphosate]
stress on perennial turf grasses, in words (Perennial Grass; Fall-treated turf plots of Table 4, 10-month study period, rate as in the label): has no perennial grasses
Perennial Grass 8 months (Perennial Grass): 0%
Perennial Grass 10 months (Perennial Grass): 0%
Perennial Grass 12 months (Perennial Grass): 0%
8-12 month average grass cover (Perennial Grass): 0%
application rate effective at causing photosynthetic disruption (chlorophyllitic plants): 0.75 pounds active ingredient per acre
Vegetation Ranking Index (weedy turf): −133
effectiveness on prostrate knotweed, in words (prostrate knotweed; along a gravel trail, FIG. 26D): highly effective
effectiveness in rain affected test (prostrate knotweed; plots put out 3 hours before a heavy rain (~1.0")): highly effective
control of invasive weeds, in words (Forbs (Weeds)): dominated by weeds by mid-summer
effectiveness in treated turf plots (Forbs (Weeds); about 30 days after treatment): 100%
Forbs (Weeds) 8 months (Forbs (Weeds)): 10%
Forbs (Weeds) 10 months (Forbs (Weeds)): 95%
Forbs (Weeds) 12 months (Forbs (Weeds)): 90%
weed cover (Forbs (Weeds); next year after treatment, pre-treatment ~50% weed cover): ~75%
8-12 month average weed cover (Forbs (Weeds)): 65%
